How the values were obtained:
T cells (Th1 skewing) = assay: Th1 skewing culture; format: cell-based; details: BTR with IL-2, IL-12, anti-IL-4 cocktail
Procedure: To investigate the molecular mechanism of action of PDAC-mediated suppression of Th1 skewing, IDO siRNA was transiently transfected into PDACs by standard techniques. Th1 skewing was carried out as for the BTR reactions (see above) but supplemented with an additional Th1 skewing cytokine cocktail containing IL-2 (200 IU/mL), IL-12 (2 ng/mL) and anti-IL-4 (0.4 μg/ml).

[1] = molecular target: T1, indoleamine 2,3-dioxygenase (IDO) (Homo sapiens, UniProt P14902); assay: BTR T cell proliferation assay with IDO blockade; format: cell-based; details: 256 μM
T1 construct: endogenous in cells; host or cells: PDACs (placental stem cells) co-cultured with T cells in the BTR assay
From the text: To investigate the mechanism of action of PDAC-mediated suppression of T cell proliferation, pharmacological inhibitors or neutralizing antibodies were used to block the activity of prostaglandin E2 (PGE2), inducible nitric oxide synthase (iNOS), transforming growth factor beta (TGF-β), interleukin-10 (IL-10) and IDO in an in vitro T cell proliferation assay (BTR).

[2] = test system: chick chorioallantoic membrane (CAM); assay: CAM angiogenesis assay using PDACs; format: in vivo; details: P<0.001, Student's t test
Procedure: Two separate CAM assays were conducted. In the first CAM assay, intact cell pellets from different preparations of PDAC were evaluated. In the second CAM assay, supernatants of different PDAC preparations were evaluated. Fibroblast growth factor (bFGF) was used as a positive control, and MDA-MB-231 human breast cancer cells as a reference, vehicle and medium controls were used as negative controls. The endpoint of the study was to determine the blood vessel densities of all treatment and control groups.
PDACs, prepared as described above and cryopreserved, were used. PDACs were thawed for dosing and the number of cells dosed on the CAM was determined. […]
CAM Assay Procedure: Fresh fertile eggs were incubated for 3 days in a standard egg incubator at 37° C. for 3 days. […] On Day 8, embryos were removed from the incubator and kept at room temperature while blood vessel density was determined under each “O” ring using an image capturing system at a magnification of 100×.
Blood vessel density was measured by an angiogenesis scoring system that used arithmetic numbers 0 to 5, or exponential numbers 1 to 32, to indicate the number of blood vessels present at the treatment sites on the CAM. […] The percent of inhibition at each dosing site was calculated using the score recorded for that site divided by the mean score obtained from control samples for each individual experiment. […]

[3] = test system: chick chorioallantoic membrane (CAM); assay: CAM angiogenesis assay using PDAC supernatants; format: in vivo; details: supernatant mixed with MATRIGEL 1:1; PDAC supernatants P<0.01, P<0.001, P<0.02; bFGF P<0.001
From the text: Supernatant samples from MDA-MB-231 cells and PDACs were used in a second CAM assay as described above. bFGF and MDA-MB-231 supernatants were used as positive controls, medium and vehicle were used as negative controls.
Study Design: The study included 5 groups with 10 embryos in each group. The design of the study is described in Table 4.
CAM Assay Procedure: The assay procedure was the same as described in section 6.3.1, above. The only difference was that supernatant from each stem cell preparation or from MDA-MB-231 cells was used as test material. For dosing, each supernatant was mixed with MATRIGEL™ (1:1 by volume) and […] of the mixture was dosed to each embryo.

T1 sequence (P14902 whole entry): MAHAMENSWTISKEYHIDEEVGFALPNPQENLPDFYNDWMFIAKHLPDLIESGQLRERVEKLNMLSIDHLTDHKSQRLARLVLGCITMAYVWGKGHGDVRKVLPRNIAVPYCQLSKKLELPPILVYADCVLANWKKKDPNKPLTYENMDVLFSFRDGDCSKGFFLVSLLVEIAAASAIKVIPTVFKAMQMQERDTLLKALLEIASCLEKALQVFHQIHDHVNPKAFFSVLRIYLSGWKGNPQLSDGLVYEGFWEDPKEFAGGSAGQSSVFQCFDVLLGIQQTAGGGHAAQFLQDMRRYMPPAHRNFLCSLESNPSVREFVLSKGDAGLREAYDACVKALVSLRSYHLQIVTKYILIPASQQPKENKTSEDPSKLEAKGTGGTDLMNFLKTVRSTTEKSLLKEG

| Compound | rescue of PDAC-mediated suppression of Th1 skewing (T cells (Th1 skewing)) | rescue of T cell proliferation from PDAC-mediated suppression [1] | blood vessel density score versus vehicle control CAMs [2] | blood vessel induction versus vehicle controls [3] |
| --- | --- | --- | --- | --- |
| Cn1cc(C[C@H](N)C(=O)O)c2ccccc21 [1 MT, 1-methyl tryptophan] | completely rescued | – | – | – |
| N[C@@H](Cc1c[nH]c2ccccc12)C(=O)O [L-Trp, L-trptophan] | completely rescued | substantially rescued | – | – |
| bFGF: basic fibroblast growth factor (positive control) | – | – | statistically significantly higher | potent induction of blood vessel formation |
